According to patent publication US12139492B2 (Endotarget Inc., priority 2021, dated 2024):

Key:
Type in all cases: cell-based
Mino cells = experiment: Antiproliferative effect, MTS cell viability assay, Mino cells; details: Homo sapiens, MINO, Mino mantle cell lymphoma cells; read-out: IC50 (anti-proliferation) Mino cells
Method in brief: (§1)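 Steps: seed B-cell lymphoma line; add compound at 0, 0.001, 0.01, 0.1, 1 or 10 μM; incubate 72 h; add MTS and read reduced tetrazolium (formazan) absorbance at 490 nm.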

JeKo-1 cells = experiment: Antiproliferative effect, MTS cell viability assay, JeKo-1 cells; details: Homo sapiens; JeKo-1 mantle cell lymphoma cells; read-out: IC50 (anti-proliferation) JeKO-1 cells
Method in brief: as §1

BTK = BTK (Homo sapiens, UniProt Q06187); experiment: BTK degradation, DC50 and Dmax of Table 1 (cell line not given); parameters: endogenous in cells; details: for DC50: concentration giving 50% reduction of BTK expression level
BTK, sequence (Q06187 whole entry): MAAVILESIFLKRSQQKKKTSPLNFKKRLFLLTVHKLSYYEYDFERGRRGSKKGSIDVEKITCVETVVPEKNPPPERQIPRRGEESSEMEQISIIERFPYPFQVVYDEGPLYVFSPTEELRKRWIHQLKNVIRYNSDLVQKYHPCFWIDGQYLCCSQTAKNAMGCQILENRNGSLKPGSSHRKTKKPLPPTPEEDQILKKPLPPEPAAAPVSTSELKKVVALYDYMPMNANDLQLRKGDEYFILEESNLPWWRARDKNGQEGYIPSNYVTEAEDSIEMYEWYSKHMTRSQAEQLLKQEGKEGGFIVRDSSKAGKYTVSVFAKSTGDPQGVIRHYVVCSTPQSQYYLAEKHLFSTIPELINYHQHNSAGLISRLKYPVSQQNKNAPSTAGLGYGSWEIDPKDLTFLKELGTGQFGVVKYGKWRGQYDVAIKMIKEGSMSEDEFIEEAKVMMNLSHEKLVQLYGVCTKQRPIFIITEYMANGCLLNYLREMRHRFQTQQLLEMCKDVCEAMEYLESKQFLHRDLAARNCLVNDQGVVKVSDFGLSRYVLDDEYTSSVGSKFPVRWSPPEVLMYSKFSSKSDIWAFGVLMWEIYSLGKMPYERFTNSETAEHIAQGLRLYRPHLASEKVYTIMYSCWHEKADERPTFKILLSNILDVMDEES

| SMILES | IC50 (Mino cells) | IC50 (JeKo-1 cells) | Dmax (BTK) | DC50 (BTK) |
| --- | --- | --- | --- | --- |
| Nc1ncnc2c1c(-c1ccc(Oc3ccccc3)cc1)nn2C1CCN(C(=O)N2CCN(CCN3CCC(c4ccc5c(c4)CN(C4CCC(=O)NC4=O)C5=O)CC3)CC2)CC1 (centres unmarked) [Compound 100, 3-(5-(1-(2-(4-(4-(4-amino-3-(4-phenoxyphenyl)-1H-pyrazolo[3,4-d]pyrimidin-1-yl)piperidine-1-carbonyl)piperazin-1-yl)ethyl)piperidin-4-yl)-1-oxoisoindolin-2-yl)piperidine-2,6-dione] | 1 to 10 µM | 1 to 10 µM | > 90% | 0.01 to 0.05 µM |
| Nc1ncnc2c1c(-c1ccc(Oc3ccccc3)cc1)nn2C1CCN(C(=O)N2CCC(CCC3CCN(c4ccc5c(c4)C(=O)N(C4CCC(=O)NC4=O)C5=O)CC3)CC2)CC1 (centres unmarked) [Compound 101, 5-(4-(2-(1-(4-(4-amino-3-(4-phenoxyphenyl)-1H-pyrazolo[3,4-d]pyrimidin-1-yl)piperidine-1-carbonyl)piperidin-4-yl)ethyl)piperidin-1-yl)-2-(2,6-dioxopiperidin-3-yl)isoindoline-1,3-dione] | > 10 µM | > 10 µM | > 90% | 0.01 to 0.05 µM |
| Nc1ncnc2c1c(-c1ccc(Oc3ccccc3)cc1)nn2C1CCN(C(=O)N2CCC(CCC3CCN(c4ccc5c(c4)CN(C4CCC(=O)NC4=O)C5=O)CC3)CC2)CC1 (centres unmarked) [Compound 102, 3-(5-(4-(2-(1-(4-(4-amino-3-(4-phenoxyphenyl)-1H-pyrazolo[3,4-d]pyrimidin-1-yl)piperidine-1-carbonyl)piperidin-4-yl)ethyl)piperidin-1-yl)-1-oxoisoindolin-2-yl)piperidine-2,6-dione] | 1 to 10 µM | > 10 µM | > 90% | 0.01 to 0.05 µM |
| Nc1ncnc2c1c(-c1ccc(Oc3ccccc3)cc1)nn2C1CCN(C(=O)N2CCC(CCN3CCC(c4ccc5c(c4)C(=O)N(C4CCC(=O)NC4=O)C5=O)CC3)CC2)CC1 (centres unmarked) [Compound 103, 5-(1-(2-(1-(4-(4-amino-3-(4-phenoxyphenyl)-1H-pyrazolo[3,4-d]pyrimidin-1-yl)piperidine-1-carbonyl)piperidin-4-yl)ethyl)piperidin-4-yl)-2-(2,6-dioxopiperidin-3-yl)isoindoline-1,3-dione] | > 10 µM | 1 to 10 µM | > 90% | 0.01 to 0.05 µM |
| Nc1ncnc2c1c(-c1ccc(Oc3ccccc3)cc1)nn2C1CCN(C(=O)N2CCC(CCN3CCC(c4ccc5c(c4)CN(C4CCC(=O)NC4=O)C5=O)CC3)CC2)CC1 (centres unmarked) [Compound 104, 3-(5-(1-(2-(1-(4-(4-amino-3-(4-phenoxyphenyl)-1H-pyrazolo[3,4-d]pyrimidin-1-yl)piperidine-1-carbonyl)piperidin-4-yl)ethyl)piperidin-4-yl)-1-oxoisoindolin-2-yl)piperidine-2,6-dione] | 1 to 10 µM | 1 to 10 µM | > 90% | 0.01 to 0.05 µM |
| Nc1ncnc2c1c(-c1ccc(Oc3ccccc3)cc1)nn2[C@@H]1CCCN(C(=O)N2CCC(CCCN3CCN(c4ccc5c(c4)C(=O)N(C4CCC(=O)NC4=O)C5=O)CC3)CC2)C1 (stereo partly drawn) [Compound 105, 5-(4-(3-(1-((R)-3-(4-amino-3-(4-phenoxyphenyl)-1H-pyrazolo[3,4-d]pyrimidin-1-yl)piperidine-1-carbonyl)piperidin-4-yl)propyl)piperazin-1-yl)-2-(2,6-dioxopiperidin-3-yl)isoindoline-1,3-dione] | > 10 µM | > 10 µM | > 75% | > 0.05 µM |
| Nc1ncnc2c1c(-c1ccc(Oc3ccccc3)cc1)nn2[C@@H]1CCCN(C(=O)N2CCC(CCCN3CCN(c4ccc5c(c4)CN(C4CCC(=O)NC4=O)C5=O)CC3)CC2)C1 (stereo partly drawn) [Compound 106, 3-(5-(4-(3-(1-((R)-3-(4-amino-3-(4-phenoxyphenyl)-1H-pyrazolo[3,4-d]pyrimidin-1-yl)piperidine-1-carbonyl)piperidin-4-yl)propyl)piperazin-1-yl)-1-oxoisoindolin-2-yl)piperidine-2,6-dione] | > 10 µM | > 10 µM | > 75% | > 0.05 µM |
| Nc1ncnc2c1c(-c1ccc(Oc3ccccc3)cc1)nn2[C@@H]1CCCN(C(=O)N2CCN(CCCN3CCN(c4ccc5c(c4)C(=O)N(C4CCC(=O)NC4=O)C5=O)CC3)CC2)C1 (stereo partly drawn) [Compound 107, 5-(4-(3-(4-((R)-3-(4-amino-3-(4-phenoxyphenyl)-1H-pyrazolo[3,4-d]pyrimidin-1-yl)piperidine-1-carbonyl)piperazin-1-yl)propyl)piperazin-1-yl)-2-(2,6-dioxopiperidin-3-yl)isoindoline-1,3-dione] | 1 to 10 µM | > 10 µM | > 75% | > 0.05 µM |
| Nc1ncnc2c1c(-c1ccc(Oc3ccccc3)cc1)nn2[C@@H]1CCCN(C(=O)N2CCN(CCCN3CCN(c4ccc5c(c4)CN(C4CCC(=O)NC4=O)C5=O)CC3)CC2)C1 (stereo partly drawn) [Compound 108, 3-(5-(4-(3-(4-((R)-3-(4-amino-3-(4-phenoxyphenyl)-1H-pyrazolo[3,4-d]pyrimidin-1-yl)piperidine-1-carbonyl)piperazin-1-yl)propyl)piperazin-1-yl)-1-oxoisoindolin-2-yl)piperidine-2,6-dione] | 1 to 10 µM | 1 to 10 µM | > 75% | > 0.05 µM |
| Nc1ncnc2c1c(-c1ccc(Oc3ccccc3)cc1)nn2[C@@H]1CCCN(C(=O)N2CCN(CCCC3CCN(c4ccc5c(c4)C(=O)N(C4CCC(=O)NC4=O)C5=O)CC3)CC2)C1 (stereo partly drawn) [Compound 109, 5-(4-(3-(4-((R)-3-(4-amino-3-(4-phenoxyphenyl)-1H-pyrazolo[3,4-d]pyrimidin-1-yl)piperidine-1-carbonyl)piperazin-1-yl)propyl)piperidin-1-yl)-2-(2,6-dioxopiperidin-3-yl)isoindoline-1,3-dione] | > 10 µM | > 10 µM | > 75% | > 0.05 µM |
| Nc1ncnc2c1c(-c1ccc(Oc3ccccc3)cc1)nn2[C@@H]1CCCN(C(=O)N2CCN(CCCC3CCN(c4ccc5c(c4)CN(C4CCC(=O)NC4=O)C5=O)CC3)CC2)C1 (stereo partly drawn) [Compound 110, 3-(5-(4-(3-(4-((R)-3-(4-amino-3-(4-phenoxyphenyl)-1H-pyrazolo[3,4-d]pyrimidin-1-yl)piperidine-1-carbonyl)piperazin-1-yl)propyl)piperidin-1-yl)-1-oxoisoindolin-2-yl)piperidine-2,6-dione] | > 10 µM | > 10 µM | > 75% | > 0.05 µM |
| Nc1ncnc2c1c(-c1ccc(Oc3ccccc3)cc1)nn2[C@@H]1CCCN(C(=O)N2CCN(CCCN3CCC(c4ccc5c(c4)C(=O)N(C4CCC(=O)NC4=O)C5=O)CC3)CC2)C1 (stereo partly drawn) [Compound 111, 5-(1-(3-(4-((R)-3-(4-amino-3-(4-phenoxyphenyl)-1H-pyrazolo[3,4-d]pyrimidin-1-yl)piperidine-1-carbonyl)piperazin-1-yl)propyl)piperidin-4-yl)-2-(2,6-dioxopiperidin-3-yl)isoindoline-1,3-dione] | 1 to 10 µM | 1 to 10 µM | > 75% | > 0.05 µM |
| Nc1ncnc2c1c(-c1ccc(Oc3ccccc3)cc1)nn2[C@@H]1CCCN(C(=O)N2CCN(CCCN3CCC(c4ccc5c(c4)CN(C4CCC(=O)NC4=O)C5=O)CC3)CC2)C1 (stereo partly drawn) [Compound 112, 3-(5-(1-(3-(4-((R)-3-(4-amino-3-(4-phenoxyphenyl)-1H-pyrazolo[3,4-d]pyrimidin-1-yl)piperidine-1-carbonyl)piperazin-1-yl)propyl)piperidin-4-yl)-1-oxoisoindolin-2-yl)piperidine-2,6-dione] | 1 to 10 µM | 1 to 10 µM | > 75% | > 0.05 µM |
| Nc1ncnc2c1c(-c1ccc(Oc3ccccc3)cc1)nn2[C@@H]1CCCN(C(=O)N2CCC(CCCC3CCN(c4ccc5c(c4)C(=O)N(C4CCC(=O)NC4=O)C5=O)CC3)CC2)C1 (stereo partly drawn) [Compound 113, 5-(4-(3-(1-((R)-3-(4-amino-3-(4-phenoxyphenyl)-1H-pyrazolo[3,4-d]pyrimidin-1-yl)piperidine-1-carbonyl)piperidin-4-yl)propyl)piperidin-1-yl)-2-(2,6-dioxopiperidin-3-yl)isoindoline-1,3-dione] | 1 to 10 µM | > 10 µM | > 75% | > 0.05 µM |
| Nc1ncnc2c1c(-c1ccc(Oc3ccccc3)cc1)nn2[C@@H]1CCCN(C(=O)N2CCC(CCCC3CCN(c4ccc5c(c4)CN(C4CCC(=O)NC4=O)C5=O)CC3)CC2)C1 (some centres unmarked) [Compound 114] | 1 to 10 µM | 1 to 10 µM | > 75% | > 0.05 µM |
| Nc1ncnc2c1c(-c1ccc(Oc3ccccc3)cc1)nn2[C@@H]1CCCN(C(=O)N2CCC(CCCN3CCC(c4ccc5c(c4)C(=O)N(C4CCC(=O)NC4=O)C5=O)CC3)CC2)C1 (stereo partly drawn) [Compound 115, 5-(1-(3-(1-((R)-3-(4-amino-3-(4-phenoxyphenyl)-1H-pyrazolo[3,4-d]pyrimidin-1-yl)piperidine-1-carbonyl)piperidin-4-yl)propyl)piperidin-4-yl)-2-(2,6-dioxopiperidin-3-yl)isoindoline-1,3-dione] | 1 to 10 µM | > 10 µM | > 75% | > 0.05 µM |
| Nc1ncnc2c1c(-c1ccc(Oc3ccccc3)cc1)nn2[C@@H]1CCCN(C(=O)N2CCC(CCCN3CCC(c4ccc5c(c4)CN(C4CCC(=O)NC4=O)C5=O)CC3)CC2)C1 (stereo partly drawn) [Compound 116, 3-(5-(1-(3-(1-((R)-3-(4-amino-3-(4-phenoxyphenyl)-1H-pyrazolo[3,4-d]pyrimidin-1-yl)piperidine-1-carbonyl)piperidin-4-yl)propyl)piperidin-4-yl)-1-oxoisoindolin-2-yl)piperidine-2,6-dione] | > 10 µM | > 10 µM | > 75% | > 0.05 µM |
